Consider 82 compounds from PubChem BioAssay AID1117348 (Cheminformatics & Chemogenomics Research Group (CCRG), …, 2015).

Activity calls are given as the source filed them. How the calls were made is not given here.

In this experiment the test system is HeLa cell cycle, increased S-phase population. Description: HeLa S-phase population increase, dose response, cell-based, IC50 (AID 1117348).
In the case of `COc1cccc2c1C(=O)c1c(O)c3c(c(O)c1C2=O)C[C@@](O)(C(=O)CO)C[C@@H]3O[C@H]1C[C@H](N)[C@H](O[C@@H]2CCCCO2)[C@H](C)O1`, the IC50 is 1.75 µM.

Take `Cc1cc(=O)c2c(O)c3c(O)cc(=O)c4c3c3c(cc(O)c1c23)C(C)(C)C=4O`: the IC50 is > 10 µM (inactive).

Regarding `CN(C)CCOC(c1ccccc1)c1ccc(Br)cc1` (configuration not stated), the IC50 was > 10 µM (inactive).

In the case of `CCC(C)(C)C(=O)O[C@H]1C[C@@H](C)C=C2C=C[C@H](C)[C@H](CC[C@@H]3C[C@@H](O)CC(=O)O3)[C@H]21`, the IC50 was > 10 µM (inactive).

As for `COC(=O)[C@H]1[C@H]2C[C@@H]3c4[nH]c5cc(OC)ccc5c4CCN3C[C@H]2C[C@@H](OC(=O)/C=C/c2ccc(O)c(OC)c2)[C@@H]1OC`, the IC50 is > 10 µM (inactive).

Take `Clc1ccccc1C(c1ccccc1)(c1ccccc1)n1ccnc1`: the IC50 was > 10 µM (inactive).

On to `CC[C@@]1(O)C(=O)OCc2c1cc1n(c2=O)Cc2cc3c(CN(C)C)c(O)ccc3nc2-1`, for which the IC50 was 0.082 µM.

As to `O=C(O)CCCc1ccc(N(CCCl)CCCl)cc1`, the IC50 was 2.19 µM.

For the compound `C=C(C)[C@H]1Cc2c(ccc3c2O[C@@H]2COc4cc(OC)c(OC)cc4[C@@H]2C3=O)O1`, the IC50 was > 10 µM (inactive).

`Cc1ccc(CCn2c3c(c4cc(Cl)ccc42)CN(C)CC3)cn1`: the IC50 is > 10 µM (inactive).

`CC(=O)O[C@@]12CO[C@@H]1C[C@H](O)[C@@]1(C)C(=O)[C@H](O)C3=C(C)[C@@H](OC(=O)[C@H](O)[C@@H](NC(=O)OC(C)(C)C)c4ccccc4)C[C@@](O)([C@@H](OC(=O)c4ccccc4)[C@H]21)C3(C)C`: the IC50 was > 10 µM (inactive).

Regarding `Cc1ccc(Nc2nccc(N(C)c3ccc4c(C)n(C)nc4c3)n2)cc1S(N)(=O)=O`, the IC50 was > 10 µM (inactive).

On to `CCCSc1ccc2nc(NC(=O)OC)[nH]c2c1`, for which the IC50 was > 10 µM (inactive).

For the compound `COC(=O)Nc1nc2ccc(C(=O)C3CC3)cc2[nH]1`, the IC50 was > 10 µM (inactive).

Take `O=C(Nc1ccc([N+](=O)[O-])cc1Cl)c1cc(Cl)ccc1O`: the IC50 was > 10 µM (inactive).

For the compound `O=C1c2c(O)ccc(O)c2C(=O)c2c(NCCNCCO)ccc(NCCNCCO)c21`, the IC50 was > 10 µM (inactive).

Consider `Nc1nc(Cl)nc2c1ncn2[C@@H]1O[C@H](CO)[C@@H](O)[C@@H]1F`, for which the IC50 was > 10 µM (inactive).

With `Nc1nc(F)nc2c1ncn2[C@@H]1O[C@H](CO)[C@@H](O)[C@@H]1O`, the IC50 was > 10 µM (inactive).

With `O=C(CCl)c1ccc(Cl)cc1Cl`, the IC50 is > 10 µM (inactive).

In the case of `Cc1nc(N)nc(N)c1-c1ccc(Cl)c(Cl)c1`, the IC50 was > 10 µM (inactive).

For `O=C1c2c(O)cccc2Cc2cccc(O)c21`, the IC50 is > 10 µM (inactive).

Consider `CCCNCC(O)COc1ccccc1C(=O)CCc1ccccc1` (configuration not stated), for which the IC50 is > 10 µM (inactive).

Turning to `CO[C@@]12[C@H](COC(N)=O)C3=C(C(=O)C(C)=C(N)C3=O)N1C[C@@H]1N[C@@H]12`, the IC50 is 0.143 µM.

For the compound `CCc1nc(N)nc(N)c1-c1ccc(Cl)cc1`, the IC50 was > 10 µM (inactive).

For `CCCCCCCCCCCCCC[N+](C)(C)C`, the IC50 was > 10 µM (inactive).

Consider `CCN(CC)CCOc1ccccc1C(=O)CCc1ccccc1`, for which the IC50 was > 10 µM (inactive).

As to `COCCOC(=O)C1=C(C)NC(C)=C(C(=O)OC/C=C/c2ccccc2)C1c1cccc([N+](=O)[O-])c1` (configuration not stated), the IC50 is > 10 µM (inactive).

Take `Nc1ccc2cc3ccc(N)cc3nc2c1`: the IC50 is 3.44 µM.

In the case of `CC(C)=CCC/C(C)=C/CC/C(C)=C/C(=O)OCC(=O)[C@@]1(O)CC[C@H]2[C@@H]3CCC4=CC(=O)C=C[C@]4(C)[C@H]3[C@@H](O)C[C@@]21C`, the IC50 is > 10 µM (inactive).

Turning to `COc1c(C)c2c(c(O)c1C/C=C(\C)CCC(=O)OCCN1CCOCC1)C(=O)OC2`, the IC50 was 0.0147 µM.

On to `COCc1c(C(C)C)nc(C(C)C)c(/C=C/[C@@H](O)C[C@@H](O)CC(=O)O)c1-c1ccc(F)cc1`, for which the IC50 is > 10 µM (inactive).

As for `O=C1C(I)=CC(=C(c2cc(I)c(O)c(I)c2)c2ccccc2C(=O)O)C=C1I`, the IC50 was > 10 µM (inactive).

In the case of `Clc1ccc(Nc2nnc(Cc3ccncc3)c3ccccc23)cc1`, the IC50 was > 10 µM (inactive).

Turning to `O=C(c1cc(O)c(O)c(O)c1)c1ccc(O)c(O)c1O`, the IC50 was > 10 µM (inactive).

For `O=c1[nH]c(=O)n([C@H]2C[C@H](O)[C@@H](CO)O2)cc1F`, the IC50 was 0.169 µM.

For the compound `COC(=O)Nc1nc2ccc(C(=O)c3cccs3)cc2[nH]1`, the IC50 is > 10 µM (inactive).

Consider `COc1ccc(-c2ccc3cc(C(=O)O)ccc3c2)cc1C12CC3CC(CC(C3)C1)C2`, for which the IC50 is > 10 µM (inactive).

`CO[C@@H]1[C@@H](OC)[C@H](C)[C@@](O)(CC(=O)O)O[C@H]1[C@H](C)[C@H]1O[C@@]2(CC[C@@](C)([C@H]3CC[C@@](C)([C@@H]4O[C@@H]([C@H]5O[C@](C)(O)[C@H](C)C[C@@H]5C)C[C@@H]4OC4C[C@H](OC)[C@@H](OC)[C@H](C)O4)O3)O2)C[C@H](O)[C@H]1C` (some centres not stated): the IC50 is > 10 µM (inactive).

`CCN(CC)CCNc1ccc(CO)c2sc3ccccc3c(=O)c12`: the IC50 was > 10 µM (inactive).

On to `CCCCCCCCCCCCCCCC[N+](C)(C)Cc1ccccc1`, for which the IC50 is > 10 µM (inactive).

Consider `O=C(CCBr)N1CCN(C(=O)CCBr)CC1`, for which the IC50 was > 10 µM (inactive).

Consider `CCOc1ccc2nc3cc(N)ccc3c(N)c2c1`, for which the IC50 was > 10 µM (inactive).

`CCN(CC)CCNC(=O)c1c(C)[nH]c(/C=C2\C(=O)Nc3ccc(F)cc32)c1C`: the IC50 is > 10 µM (inactive).

Take `COc1cc(NCc2ccc3nc(N)nc(N)c3c2C)cc(OC)c1OC`: the IC50 is > 10 µM (inactive).

For the compound `Oc1c(Cl)cc(Cl)cc1Sc1cc(Cl)cc(Cl)c1O`, the IC50 was > 10 µM (inactive).

Turning to `N[C@@H](Cc1ccc(N(CCCl)CCCl)cc1)C(=O)O`, the IC50 is > 10 µM (inactive).

Consider `CC(C)c1c(C(=O)Nc2ccccc2)c(-c2ccccc2)c(-c2ccc(F)cc2)n1CC[C@@H](O)C[C@@H](O)CC(=O)O`, for which the IC50 is > 10 µM (inactive).

On to `Oc1ccc([C@H]2CNCc3c2ccc(O)c3O)cc1O`, for which the IC50 was > 10 µM (inactive).

Take `CCCCCCCCCCCC[N+](C)(C)Cc1ccccc1`: the IC50 is > 10 µM (inactive).

Take `CCCCCCCCCCCCNCCNCCNCC(=O)O`: the IC50 was > 10 µM (inactive).

For the compound `COc1cc(NC(C)CCCN)c2ncccc2c1` (configuration not stated), the IC50 is > 10 µM (inactive).

In the case of `O=C(O)CCc1nc2ccccc2[nH]1`, the IC50 is > 10 µM (inactive).

Take `C1CN(P2(N3CC3)=NP(N3CC3)(N3CC3)=NP(N3CC3)(N3CC3)=N2)CCO1` (configuration not stated): the IC50 is > 10 µM (inactive).

`COc1cc([C@@H]2c3cc4c(cc3[C@H](O)[C@H]3COC(=O)[C@H]23)OCO4)cc(OC)c1OC`: the IC50 was > 10 µM (inactive).

As to `C[C@@H]1C[C@H]2[C@@H]3CCC4=CC(=O)C=C[C@]4(C)[C@@]3(Cl)[C@@H](O)C[C@]2(C)[C@@]1(OC(=O)c1ccco1)C(=O)CCl`, the IC50 is > 10 µM (inactive).

Regarding `CCc1oc2ccccc2c1C(=O)c1cc(Br)c(O)c(Br)c1`, the IC50 was > 10 µM (inactive).

As to `COc1cc2c(c(OC)c1OC)-c1ccc(OC)c(=O)cc1[C@@H](NC(C)=O)CC2`, the IC50 is 0.1 µM (inactive).

Regarding `CN(C)/N=N/c1nc[nH]c1C(N)=O`, the IC50 is > 10 µM (inactive).

For the compound `CC[C@]1(O)C[C@@H]2CN(CCc3c([nH]c4ccccc34)[C@@](C(=O)OC)(c3cc4c(cc3OC)N(C)[C@H]3[C@@](O)(C(=O)OC)[C@H](OC(C)=O)[C@]5(CC)C=CCN6CC[C@]43[C@@H]65)C2)C1`, the IC50 was > 10 µM (inactive).

In the case of `CC(C)(C)C1CCC(CC2=C(O)c3ccccc3C(=O)C2=O)CC1` (configuration not stated), the IC50 was > 10 µM (inactive).

As to `COc1cc(-c2ccc(=O)[nH]n2)ccc1OC(F)F`, the IC50 was > 10 µM (inactive).

As for `C[C@@]12C(=O)OC(=O)[C@]1(C)C1CCC2O1`, the IC50 is > 10 µM (inactive).

On to `CCCCC1C(=O)N(c2ccccc2)N(c2ccc(O)cc2)C1=O` (configuration not stated), for which the IC50 was > 10 µM (inactive).

As to `O=C1C2CC=CCC2C(=O)N1SC(Cl)(Cl)Cl` (configuration not stated), the IC50 is > 10 µM (inactive).

For the compound `O=C(NOCC1CC1)c1ccc(F)c(F)c1Nc1ccc(I)cc1Cl`, the IC50 was > 10 µM (inactive).

For `CCCCOC(=O)c1ccc(N)cc1`, the IC50 is > 10 µM (inactive).

For `CC(=O)N(O)CCCCCNC(=O)CCC(=O)N(O)CCCCCNC(=O)CCC(=O)N(O)CCCCCN`, the IC50 was > 10 µM (inactive).

For `CCC(COC(=O)c1cc(OC)c(OC)c(OC)c1)(c1ccccc1)N(C)C` (configuration not stated), the IC50 was > 10 µM (inactive).

Turning to `CCC(=O)c1ccc(O)cc1`, the IC50 was > 10 µM (inactive).

Consider `O=[N+]([O-])c1ccc(Oc2ccc(N=C=S)cc2)cc1`, for which the IC50 was > 10 µM (inactive).

Consider `Cc1cc(O)c2ccccc2c1O`, for which the IC50 was > 10 µM (inactive).

As for `COC(=O)c1nc(Cl)c(Cl)nc1N`, the IC50 is > 10 µM (inactive).

Turning to `CC(C)n1c(/C=C/[C@@H](O)C[C@@H](O)CC(=O)O)c(-c2ccc(F)cc2)c2ccccc21`, the IC50 is > 10 µM (inactive).

For the compound `OC[C@H]1O[C@@H](n2cnc3c(=S)nc[nH]c32)[C@H](O)[C@@H]1O`, the IC50 is > 10 µM (inactive).

In the case of `C[C@]12CC[C@@H]3c4ccc(O)cc4CC[C@H]3[C@@H]1CC[C@@H]2OC(=O)CCC1CCCC1`, the IC50 was > 10 µM (inactive).

As for `Nc1nc(=S)c2[nH]cnc2[nH]1`, the IC50 was > 10 µM (inactive).

Turning to `CCCCc1ccc2nc(NC(=O)OC)[nH]c2c1`, the IC50 was > 10 µM (inactive).

With `Cn1cnc([N+](=O)[O-])c1Sc1ncnc2nc[nH]c12`, the IC50 was > 10 µM (inactive).

In the case of `O=[N+]([O-])c1ccc(O)c2ncccc12`, the IC50 is > 10 µM (inactive).

As for `CC(=O)Oc1ccc(C2(c3ccc(OC(C)=O)cc3)Oc3ccccc3NC2=O)cc1`, the IC50 was > 10 µM (inactive).

Take `CN(C)CCC=C1c2ccccc2CCc2ccccc21`: the IC50 was > 10 µM (inactive).

As to `CCN(CCCCOC(=O)c1ccc(OC)c(OC)c1)C(C)Cc1ccc(OC)cc1` (configuration not stated), the IC50 is > 10 µM (inactive).
